Source: patent publication US20100152434A1, “Protein Kinase-binding Nucleosides and Associated Methods” (priority 2007, published 2010)
Like-named read-outs stand apart in the source and are kept apart here.

Tests used:
NCI-H226 [1] = assay: cells; settings: Homo sapiens
NCI-H522 = assay: cells; settings: Homo sapiens
BT-549 = assay: cells; settings: Homo sapiens
CAKI-1 = assay: cells; settings: Homo sapiens
OVCAR-5 = assay: cells; settings: Homo sapiens
MDA-MB-231/ATCC = assay: cells; settings: Homo sapiens
M14 = assay: cells; settings: Homo sapiens
NCI-H23 = assay: cells; settings: Homo sapiens
NCI-H226 [2] = test system: NCI-H226
SNB-19 = assay: cells; settings: Homo sapiens
EKVX = assay: cells; settings: Homo sapiens
SNB-75 [3] = assay: cells; settings: Homo sapiens
NCI-H460 = assay: cells; settings: Homo sapiens
RXF 393 [4] = assay: cells; settings: Homo sapiens
RXF 393 [5] = settings: RXF 393
MDA-MB-435 = settings: MDA-MB-435
SNB-75 [6] = test system: SNB-75

## CNC(=O)NC[C@H]1O[C@@H](n2cnc3c(NC(=O)Nc4ccccc4)ncnc32)[C@H](O[Si](C)(C)C(C)(C)C)[C@@H]1CC(=O)N(C)OC [Compound 13, 2′-O-(tert-Butyldimethylsilyl)-3′,5′-dideoxy-3′-[(N-methoxy-N-methylcarboxamido)methyl]-5′-[(N-methylcarbamoyl)amino]-N^6-(N-phenylcarbamoyl)adenosine]
NCI-H226 [1]; NCI-H226
  GI50: 41.9 µM
NCI-H226 [1]; NCI-H226, read-out: LC50
  CC50: > 100 µM
NCI-H522; NCI-H522
  GI50: 11.1 µM
NCI-H522; NCI-H522, read-out: LC50
  CC50: > 100 µM
HCT-116
  TGI: >1.00E−4 Molar
HCT-116; Log10 Concentration −4.0
  Percent Growth: 6%
HCT-116; Log10 Concentration −5.0
  Percent Growth: 26%
HCT-116; Log10 Concentration −6.0
  Percent Growth: 89%
HCT-116; Log10 Concentration −7.0
  Percent Growth: 90%
HCT-116; Log10 Concentration −8.0
  Percent Growth: 93%
BT-549; BT-549
  GI50: 29 µM
BT-549; BT-549, read-out: LC50
  CC50: > 100 µM
CAKI-1; CAKI-1
  GI50: 53.8 µM
CAKI-1; CAKI-1, read-out: LC50
  CC50: > 100 µM
IGROV1
  TGI: 6.57E−5 Molar
IGROV1; Log10 Concentration −4.0
  Percent Growth: −6%
IGROV1; Log10 Concentration −5.0
  Percent Growth: 26%
IGROV1; Log10 Concentration −6.0
  Percent Growth: 82%
IGROV1; Log10 Concentration −7.0
  Percent Growth: 89%
IGROV1; Log10 Concentration −8.0
  Percent Growth: 89%
OVCAR-5; OVCAR-5
  GI50: 38.2 µM
OVCAR-5; OVCAR-5, read-out: LC50
  CC50: > 100 µM
OVCAR-4
  TGI: >1.00E−4 Molar
OVCAR-4; Log10 Concentration −4.0
  Percent Growth: 46%
OVCAR-4; Log10 Concentration −5.0
  Percent Growth: 60%
OVCAR-4; Log10 Concentration −6.0
  Percent Growth: 96%
OVCAR-4; Log10 Concentration −7.0
  Percent Growth: 100%
OVCAR-4; Log10 Concentration −8.0
  Percent Growth: 100%
MDA-MB-231/ATCC; MDA-MB-231
  GI50: 12.3 µM
MDA-MB-231/ATCC; MDA-MB-231, read-out: LC50
  CC50: > 100 µM
MALME-3M
  TGI: >1.00E−4 Molar
MALME-3M; Log10 Concentration −4.0
  Percent Growth: 23%
MALME-3M; Log10 Concentration −5.0
  Percent Growth: 52%
MALME-3M; Log10 Concentration −6.0
  Percent Growth: 93%
MALME-3M; Log10 Concentration −7.0
  Percent Growth: 88%
MALME-3M; Log10 Concentration −8.0
  Percent Growth: 103%
A498
  TGI: 4.03E−5 Molar
A498; Log10 Concentration −4.0
  Percent Growth: −16%
A498; Log10 Concentration −5.0
  Percent Growth: 24%
A498; Log10 Concentration −6.0
  Percent Growth: 87%
A498; Log10 Concentration −7.0
  Percent Growth: 96%
A498; Log10 Concentration −8.0
  Percent Growth: 90%
SK-OV-3
  TGI: >1.00E−4 Molar
SK-OV-3; Log10 Concentration −4.0
  Percent Growth: 38%
SK-OV-3; Log10 Concentration −5.0
  Percent Growth: 82%
SK-OV-3; Log10 Concentration −6.0
  Percent Growth: 95%
SK-OV-3; Log10 Concentration −7.0
  Percent Growth: 97%
SK-OV-3; Log10 Concentration −8.0
  Percent Growth: 96%
M14; M14
  GI50: 15.2 µM
M14; M14, read-out: LC50
  CC50: > 100 µM
NCI-H23; NCI-H23
  GI50: 57.2 µM
NCI-H23; NCI-H23, read-out: LC50
  CC50: > 100 µM
T-47D
  TGI: >1.00E−4 Molar
T-47D; Log10 Concentration −4.0
  Percent Growth: 17%
T-47D; Log10 Concentration −5.0
  Percent Growth: 56%
T-47D; Log10 Concentration −6.0
  Percent Growth: 84%
T-47D; Log10 Concentration −7.0
  Percent Growth: 89%
T-47D; Log10 Concentration −8.0
  Percent Growth: 90%
LOX IMVI
  TGI: >1.00E−4 Molar
LOX IMVI; Log10 Concentration −4.0
  Percent Growth: 35%
LOX IMVI; Log10 Concentration −5.0
  Percent Growth: 43%
LOX IMVI; Log10 Concentration −6.0
  Percent Growth: 94%
LOX IMVI; Log10 Concentration −7.0
  Percent Growth: 96%
LOX IMVI; Log10 Concentration −8.0
  Percent Growth: 97%
NCI-H226 [2]
  TGI: >1.00E−4 Molar
NCI-H226 [2]; Log10 Concentration −4.0
  Percent Growth: 40%
NCI-H226 [2]; Log10 Concentration −5.0
  Percent Growth: 66%
NCI-H226 [2]; Log10 Concentration −6.0
  Percent Growth: 99%
NCI-H226 [2]; Log10 Concentration −7.0
  Percent Growth: 111%
NCI-H226 [2]; Log10 Concentration −8.0
  Percent Growth: 103%
SNB-19; SNB-19
  GI50: > 100 µM
SNB-19; SNB-19, read-out: LC50
  CC50: > 100 µM
EKVX
  GI50: 26.4 µM
EKVX; read-out: LC50
  CC50: > 100 µM
SNB-75 [3]; SNB-75
  GI50: 12.7 µM
SNB-75 [3]; SNB-75, read-out: LC50
  CC50: > 100 µM
NCI-H460; NCI-H460
  GI50: 7.49 µM
NCI-H460; NCI-H460, read-out: LC50
  CC50: > 100 µM
RXF 393 [4]; RXF 393
  GI50: 9.74 µM
RXF 393 [4]; RXF 393, read-out: LC50
  CC50: > 100 µM
RXF 393 [5]
  TGI: 3.80E−5 Molar
RXF 393 [5]; Log10 Concentration −4.0
  Percent Growth: −36%
RXF 393 [5]; Log10 Concentration −5.0
  Percent Growth: 49%
RXF 393 [5]; Log10 Concentration −6.0
  Percent Growth: 98%
RXF 393 [5]; Log10 Concentration −7.0
  Percent Growth: 100%
RXF 393 [5]; Log10 Concentration −8.0
  Percent Growth: 103%
SN12C
  TGI: >1.00E−4 Molar
SN12C; Log10 Concentration −4.0
  Percent Growth: 49%
SN12C; Log10 Concentration −5.0
  Percent Growth: 66%
SN12C; Log10 Concentration −6.0
  Percent Growth: 96%
SN12C; Log10 Concentration −7.0
  Percent Growth: 104%
SN12C; Log10 Concentration −8.0
  Percent Growth: 106%
MDA-MB-435
  TGI: >1.00E−4 Molar
MDA-MB-435; Log10 Concentration −4.0
  Percent Growth: 36%
MDA-MB-435; Log10 Concentration −5.0
  Percent Growth: 51%
MDA-MB-435; Log10 Concentration −6.0
  Percent Growth: 98%
MDA-MB-435; Log10 Concentration −7.0
  Percent Growth: 97%
MDA-MB-435; Log10 Concentration −8.0
  Percent Growth: 100%
SNB-75 [6]
  TGI: >1.00E−4 Molar
SNB-75 [6]; Log10 Concentration −4.0
  Percent Growth: 12%
SNB-75 [6]; Log10 Concentration −5.0
  Percent Growth: 54%
SNB-75 [6]; Log10 Concentration −6.0
  Percent Growth: 84%
SNB-75 [6]; Log10 Concentration −7.0
  Percent Growth: 95%
SNB-75 [6]; Log10 Concentration −8.0
  Percent Growth: 94%
